Patent US5700682A, “Mechanism based screen for retinoid X receptor agonists and antagonists” (American Cyanamid Company, priority 1995, dated 1997)

Molecular target: T1, RXRα (Homo sapiens, UniProt P19793)
T1 construct: reporter YRpA: two apoAI site A copies-CYC1-lacZ
T1 sequence (P19793 1-462): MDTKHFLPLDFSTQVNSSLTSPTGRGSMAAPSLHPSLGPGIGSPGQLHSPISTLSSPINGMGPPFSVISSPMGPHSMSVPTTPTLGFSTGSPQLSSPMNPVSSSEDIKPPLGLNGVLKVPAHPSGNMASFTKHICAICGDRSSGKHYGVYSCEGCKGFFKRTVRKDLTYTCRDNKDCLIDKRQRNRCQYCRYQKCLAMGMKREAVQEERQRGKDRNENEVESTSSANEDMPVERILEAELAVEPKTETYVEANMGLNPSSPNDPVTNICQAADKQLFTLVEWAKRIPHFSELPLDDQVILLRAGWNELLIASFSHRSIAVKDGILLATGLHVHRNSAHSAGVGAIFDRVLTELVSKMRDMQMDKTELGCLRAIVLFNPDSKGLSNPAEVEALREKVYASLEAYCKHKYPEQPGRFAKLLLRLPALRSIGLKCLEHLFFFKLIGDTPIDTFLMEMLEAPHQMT
Assay: Plate assay (X-GAL, blue halo) as a screen to detect RXRα agonists
Format: cell-based
Conditions: discs containing hormone on agar plate with X-GAL; FIG. 7
Source text: Yeast cells containing the RXRα expression plasmid and the reporter construct are inoculated in Yeast media containing the chromogenic substrate, X-GAL® (a registered trademark of 5-bromo-4-chloro-3-indolyl-β-D-galactopyranoside, commercially available from Gibco BRL, Bethesda, Md.).
To identify nontoxic ligands of RXRα, the present invention includes a novel screen for detecting compounds having retinoid X receptor agonist or antagonist activity by the following steps: (1) Providing a yeast strain which expresses the […] and activates the reporter plasmid containing apoAI gene site A or a mutated variant thereof; (2) incubating the compound in suitable media and a colorless chromogenic substrate; and (3) examining the media for development of color. FIG. 7 illustrates the screen as a plate assay which detects RXRα agonists. Yeast cells containing the RXRα expression plasmid and the reporter construct are inoculated in yeast media containing the chromogenic substrate, X-GAL® (a registered trademark of 5-bromo-4-chloro-3-indolyl-β-D-galactopyranoside, commercially available from Gibco BRL, Bethesda, Md.). Other well-known chromogenic substrates may substitute for X-GAL®. Then, discs containing different test compounds may be placed on top of the agar plate. Induction of the reporter enzyme by the ligands of RXRα is reflected by the formation of a color.

Row | SMILES | Induction of the reporter enzyme as reflected by formation of the blue halo
1 | C[C@]12CC[C@H]3[C@@H](CCC4=CC(=O)CC[C@@]43C)[C@@H]1CC[C@@H]2O [testosterone] | observed for 9-cis retinoic acid and all-trans-retinoic acids only
2 | CC(C)(O)CC[C@@H](O)[C@](C)(O)[C@H]1CC[C@@]2(O)C3=CC(=O)[C@@H]4C[C@@H](O)[C@@H](O)C[C@]4(C)[C@H]3CC[C@]12C [20-hydroxyecdysone] | observed for 9-cis retinoic acid and all-trans-retinoic acids only
3 | C[C@]12CCC(=O)C=C1CC[C@@H]1[C@@H]2C(=O)C[C@@]2(C)[C@H]1CC[C@]2(O)C(=O)CO [cortisone] | observed for 9-cis retinoic acid and all-trans-retinoic acids only
4 | CC(=O)[C@H]1CC[C@H]2[C@@H]3CCC4=CC(=O)CC[C@]4(C)[C@H]3CC[C@]12C [progesterone] | observed for 9-cis retinoic acid and all-trans-retinoic acids only

System: RXRα binding to the apoAI gene site A
Assay: not given
Conditions: reticulocyte lysates; cited from earlier work

Row | SMILES | Binding of in vitro translated RXRα to apoAI gene site A on supplementing lysates with ligand
5 | CC1=C(/C=C/C(C)=C/C=C/C(C)=C/C(=O)O)C(C)(C)CCC1 [all-trans-RA, all-trans-retinoic acid] | to the lesser extent
6 | CC1=C(/C=C/C(C)=C\C=C\C(C)=C\C(=O)O)C(C)(C)CCC1 [9-cis-RA, 9-cis-retinoic acid] | does not bind to the apoAI gene site A unless these lysates are supplemented
